Source: patent US10878939B2, “Methods and compositions for personalized pain management” (Children's Hospital Medical Center, priority 2014, dated 2020)

System: children undergoing tonsillectomy
Test: Postoperative analgesia measurements by ABCB1 genotype (Example 7)
Details: for Maximum FLACC: median (IQR); for Post-Operative morphine: patients with at least one post-operative intervention
[1] = Blacks, ABCB1 Rs1128503 CC, N=24
[2] = Blacks, ABCB1 Rs1128503 TC, N=18
[3] = Blacks, ABCB1 Rs1128503 TT, N=2
[4] = Blacks, ABCB1 Rs2032582 GA, N=1
[5] = Blacks, ABCB1 Rs2032582 GG, N=35
[6] = Blacks, ABCB1 Rs2032582 GT, N=8
[7] = Blacks, ABCB1 Rs2229109 CA, N=1
[8] = Blacks, ABCB1 Rs2229109 CC, N=43
[9] = Blacks, ABCB1 Rs9282564 AA, N=41
[10] = Blacks, ABCB1 Rs9282564 GA, N=3
[11] = Blacks, ABCB1 rs10456542 CC, N=27
[12] = Blacks, ABCB1 rs10456542 TC, N=14
[13] = Blacks, ABCB1 rs10456542 TT, N=3
[14] = Whites, ABCB1 Rs1128503 CC, N=70
[15] = Whites, ABCB1 Rs1128503 TC, N=102
[16] = Whites, ABCB1 Rs1128503 TT, N=47
[17] = Whites, ABCB1 Rs2032582 GA, N=7
[18] = Whites, ABCB1 Rs2032582 GG, N=65
[19] = Whites, ABCB1 Rs2032582 GT, N=100
[20] = Whites, ABCB1 Rs2032582 TA, N=1
[21] = Whites, ABCB1 Rs2032582 TT, N=46
[22] = Whites, ABCB1 Rs2229109 CA, N=14
[23] = Whites, ABCB1 Rs2229109 CC, N=205
[24] = Whites, ABCB1 Rs9282564 AA, N=171
[25] = Whites, ABCB1 Rs9282564 GA, N=46
[26] = Whites, ABCB1 Rs9282564 GG, N=2
[27] = Whites, ABCB1 rs10456542 CC, N=49
[28] = Whites, ABCB1 rs10456542 TC, N=100
[29] = Whites, ABCB1 rs10456542 TT, N=70

Description: All participants received standard perioperative care. Anesthesia was induced using sevoflurane followed by a propofol (2 mg/kg) bolus to facilitate endotracheal intubation. Anesthesia was maintained with sevoflurane without the use of neuromuscular blockade. […] All children receive prophylactic ondansetron (0.1 mg/kg) and dexamethasone (0.1 mg/kg) intraoperatively.
Blood was collected from each participant in the operating room under anesthesia and the DNA was isolated the same day and stored at −20 degree Celsius. Batched genotyping was performed after clinical data was entered on all study participants. The TaqMan allelic discrimination system assays and Genotyper Softerware Version 1.0.1 (Life Technologies, Applied Biosystems, Forest City, Calif.) were used to analyse and report the following ABCB1 polymorphisms: rs1045642, rs2032582, rs1128503, rs2229109, and rs9282564.
Prior to analysis, data qualities were examined. For the ABCB1 variants, allelic and genotype frequencies were assessed in white and black patients separately, and Hardy Weinberg equilibrium (HWE) was tested. To analyze binary outcomes (RD, prolonged PACU secondary to RD and analgesic intervention need), logistic regression was performed. […] Thus, maximum FLACC scores were analyzed using a zero-inflated negative binomial model to appropriately capture the distribution of this variable. […] To select the best fitting model, log likelihood, Akaike and Bayesian Information criterion were compared, and residuals were examined. […] To assess the single SNP association with the outcomes, additive models were used, in which the genotypes were recoded and tested as continuous variables. For the four bi-allelic SNPs, genotypes were recoded to 0, 1 and 2 according to the number of minor alleles. For rs2032582, GG genotype was recoded as 0; GA and GT genotypes were combined and recoded as 1, and TT and TA genotypes as 2. Statistical modeling was conducted with white and black patients separately and combined. When races were combined, the effects of race and race*SNP interaction were tested.

Compound: CN1CC[C@]23c4c5ccc(O)c4O[C@H]2[C@@H](O)C=C[C@H]3[C@H]1C5 [morphine]
- median of maximum FLACC scores (263 patients): 3
- patients who needed analgesic intervention(s) (263 patients): 62%
- Analges. % (analgesic interventions %) [1]: 88%
- Maximum FLACC [1]: 5 (4-8)
- Post-Operative morphine (Blacks, ABCB1 Rs1128503 CC, N=24, mean ± SD): 0.12 ± 0.08 mg/kg
- Analges. % (analgesic interventions %) [2]: 89%
- Maximum FLACC [2]: 6 (3-9)
- Post-Operative morphine (Blacks, ABCB1 Rs1128503 TC, N=18, mean ± SD): 0.13 ± 0.05 mg/kg
- Analges. % (analgesic interventions %) [3]: 100%
- Maximum FLACC [3]: 4 (0-8)
- Post-Operative morphine (Blacks, ABCB1 Rs1128503 TT, N=2, mean ± SD): 0.08 ± 0.03 mg/kg
- Analges. % (analgesic interventions %) [4]: 100%
- Maximum FLACC [4]: 4 (4-4)
- Post-Operative morphine [4]: 0.08 mg/kg
- Analges. % (analgesic interventions %) [5]: 91%
- Maximum FLACC [5]: 5 (3-8)
- Post-Operative morphine (Blacks, ABCB1 Rs2032582 GG, N=35, mean ± SD): 0.12 ± 0.07 mg/kg
- Analges. % (analgesic interventions %) [6]: 75%
- Maximum FLACC [6]: 8 (2-9)
- Post-Operative morphine (Blacks, ABCB1 Rs2032582 GT, N=8, mean ± SD): 0.11 ± 0.04 mg/kg
- Analges. % (analgesic interventions %) [7]: 100%
- Maximum FLACC [7]: 8 (8-8)
- Post-Operative morphine [7]: 0.04 mg/kg
- Analges. % (analgesic interventions %) [8]: 88%
- Maximum FLACC [8]: 5 (3-8)
- Post-Operative morphine (Blacks, ABCB1 Rs2229109 CC, N=43, mean ± SD): 0.12 ± 0.06 mg/kg
- Analges. % (analgesic interventions %) [9]: 88%
- Maximum FLACC [9]: 5 (3-8)
- Post-Operative morphine (Blacks, ABCB1 Rs9282564 AA, N=41, mean ± SD): 0.12 ± 0.07 mg/kg
- Analges. % (analgesic interventions %) [10]: 100%
- Maximum FLACC [10]: 8 (8-10)
- Post-Operative morphine (Blacks, ABCB1 Rs9282564 GA, N=3, mean ± SD): 0.10 ± 0.00 mg/kg
- Analges. % (analgesic interventions %) [11]: 89%
- Maximum FLACC [11]: 5 (4-8)
- Post-Operative morphine (Blacks, ABCB1 rs10456542 CC, N=27, mean ± SD): 0.12 ± 0.07 mg/kg
- Analges. % (analgesic interventions %) [12]: 86%
- Maximum FLACC [12]: 7 (1-8)
- Post-Operative morphine (Blacks, ABCB1 rs10456542 TC, N=14, mean ± SD): 0.12 ± 0.05 mg/kg
- Analges. % (analgesic interventions %) [13]: 100%
- Maximum FLACC [13]: 8 (3-8)
- Post-Operative morphine (Blacks, ABCB1 rs10456542 TT, N=3, mean ± SD): 0.12 ± 0.11 mg/kg
- Analges. % (analgesic interventions %) [14]: 57%
- Maximum FLACC [14]: 3 (0-5)
- Post-Operative morphine (Whites, ABCB1 Rs1128503 CC, N=70, mean ± SD): 0.09 ± 0.04 mg/kg
- Analges. % (analgesic interventions %) [15]: 57%
- Maximum FLACC [15]: 2 (0-5)
- Post-Operative morphine (Whites, ABCB1 Rs1128503 TC, N=102, mean ± SD): 0.10 ± 0.05 mg/kg
- Analges. % (analgesic interventions %) [16]: 53%
- Maximum FLACC [16]: 1 (0-5)
- Post-Operative morphine (Whites, ABCB1 Rs1128503 TT, N=47, mean ± SD): 0.08 ± 0.04 mg/kg
- Analges. % (analgesic interventions %) [17]: 43%
- Maximum FLACC [17]: 2 (1-5)
- Post-Operative morphine (Whites, ABCB1 Rs2032582 GA, N=7, mean ± SD): 0.09 ± 0.05 mg/kg
- Analges. % (analgesic interventions %) [18]: 58%
- Maximum FLACC [18]: 4 (0-6)
- Post-Operative morphine (Whites, ABCB1 Rs2032582 GG, N=65, mean ± SD): 0.09 ± 0.04 mg/kg
- Analges. % (analgesic interventions %) [19]: 57%
- Maximum FLACC [19]: 2 (0-5)
- Post-Operative morphine (Whites, ABCB1 Rs2032582 GT, N=100, mean ± SD): 0.09 ± 0.05 mg/kg
- Analges. % (analgesic interventions %) [20]: 100%
- Maximum FLACC [20]: 8 (8-8)
- Post-Operative morphine [20]: 0.21 mg/kg
- Analges. % (analgesic interventions %) [21]: 52%
- Maximum FLACC [21]: 1 (1-5)
- Post-Operative morphine (Whites, ABCB1 Rs2032582 TT, N=46, mean ± SD): 0.09 ± 0.04 mg/kg
- Analges. % (analgesic interventions %) [22]: 50%
- Maximum FLACC [22]: 2 (1-4)
- Post-Operative morphine (Whites, ABCB1 Rs2229109 CA, N=14, mean ± SD): 0.06 ± 0.02 mg/kg
- Analges. % (analgesic interventions %) [23]: 57%
- Maximum FLACC [23]: 2 (0-5)
- Post-Operative morphine (Whites, ABCB1 Rs2229109 CC, N=205, mean ± SD): 0.09 ± 0.05 mg/kg
- Analges. % (analgesic interventions %) [24]: 56%
- Maximum FLACC [24]: 2 (0-5)
- Post-Operative morphine (Whites, ABCB1 Rs9282564 AA, N=171, mean ± SD): 0.09 ± 0.04 mg/kg
- Analges. % (analgesic interventions %) [25]: 54%
- Maximum FLACC [25]: 2 (0-4)
- Post-Operative morphine (Whites, ABCB1 Rs9282564 GA, N=46, mean ± SD): 0.09 ± .05 mg/kg
- Analges. % (analgesic interventions %) [26]: 100%
- Maximum FLACC [26]: 7 (6-7)
- Post-Operative morphine (Whites, ABCB1 Rs9282564 GG, N=2, mean ± SD): 0.16 ± 0.07 mg/kg
- Analges. % (analgesic interventions %) [27]: 63%
- Maximum FLACC [27]: 4 (0-6)
- Post-Operative morphine (Whites, ABCB1 rs10456542 CC, N=49, mean ± SD): 0.09 ± 0.03 mg/kg
- Analges. % (analgesic interventions %) [28]: 52%
- Maximum FLACC [28]: 2 (0-4)
- Post-Operative morphine (Whites, ABCB1 rs10456542 TC, N=100, mean ± SD): 0.09 ± 0.05 mg/kg
- Analges. % (analgesic interventions %) [29]: 57%
- Maximum FLACC [29]: 2 (1-5)
- Post-Operative morphine (Whites, ABCB1 rs10456542 TT, N=70, mean ± SD): 0.10 ± 0.05 mg/kg
- post-operative morphine in patients who needed intervention (average): 0.10 ± 0.05 mg/kg
